According to US9834514B2, “Antibiotic sensitivity-restoring and photosensitive agents” (New Mexico Tech Research Foundation, priority 2015, dated 2017):
Values after ≈ are worked out from the molar mass of the structure shown.

What was measured:
P. aeruginosa = experiment: MIC against P. aeruginosa; assay type: cell-based; settings: Pseudomonas aeruginosa, read-out: MIC
Source text: Only compound 1 was able to decrease the CFU/mL when used in conjunction with white light to treat P. aeruginosa.

[1] = system: MRSA isolates (S. aureus ATCC 33591, BAA-44, BAA-1707, BAA-1717, BAA-1720, BAA-1747, BAA-1754, BAA-1761, BAA-1763, BAA-1764, BAA-1766); experiment: Combination effects of compounds 7-11 and antibiotics on MRSA isolates (turbidity); assay type: cell-based
Source text: Inhibition resulting from co-treatment of a broth suspension with a compound of the invention and an antibiotic was compared to broth suspensions subjected to each individual treatment. A visual observation of inhibition with the unaided eye upon co-treatment of the broth suspensions, based on turbidity, was considered synergistic.
Exceptions to reading complete inhibition of growth included Gram-positive cocci. For Gram-positive cocci, trailing growth was observed. For these species, the MICs were read at the first spot where trailing was observed, and tiny buttons of growth were ignored. […]
Two-fold dilutions of the antibiotics were prepared in a liquid growth medium dispensed in test tubes. […] The antibiotic-containing tubes were inoculated with a standard bacterial suspension of 5×10^5 CFU/mL. Following an overnight incubation (16-20 hrs) at 35±2° C. under ambient air, the tubes were examined for visible bacterial growth based on turbidity. The lowest concentration of antibiotic that prevented growth was determined to be the MIC. An incubation time of 24 hrs was used to determine the MICs of oxacillin and vancomycin.

VRE = experiment: MIC against VRE; assay type: cell-based, Enterococcus faecalis; settings: Enterococcus, TABLE 23, read-out: VRE MIC
Description: In a 12×75 mm borosilicate glass culture tube, 1 mL of cell suspension was added. Then, compound 7 was added to the cells, and the samples were mixed using a vortex mixer. […] The samples were incubated overnight at 37° C. on a rotary shaking incubator at 100 rpm.

A. baumannii = experiment: Resensitization to antibiotics (log reduction, TABLE 29); assay type: cell-based; settings: compound 5 μM; PME (0.2 μg/mL)
[2] = system: Klebsiella pneumoniae (CRE, ATCC BAA-1705); experiment: Time-dependent colony counts of CRE with compounds and PME; assay type: cell-based; settings: PME 0.2 μg/mL, compound 20 μM; FIGS. 48, 49
Description: The MICs of PME and compounds 8-11 were determined against Klebsiella pneumoniae (CRE, ATCC BAA-1705). […] […] At specific time points, the samples were taken and diluted ten-fold in media. Ten microliters of each dilution was then drip-streaked onto an agar plate and incubated overnight at 37° C. Colony counts were then performed and the CFU/mL were calculated.

[3] = system: Klebsiella pneumoniae (CRE, ATCC BAA-1705); experiment: Cell killing of CRE with compounds in presence or absence of PMB (CFU/mL); assay type: cell-based; settings: for PMB + Comp: PMB @ 0.2 μg/mL + Comp @ 20 µM; for Comp @ 20 µM: compound alone
Description: Klebsiella pneumoniae (CRE, ATCC BAA-1705) was grown in TSB overnight at 37° C. and diluted to about 5×10^5 CFU/mL using a McFarland Latex Turbidity standard (0.5). One mL of the cell suspension was transferred to a glass culture test tube. PMB was added to the cell suspension resulting in a final concentration of 200 μg/mL of PMB. The cell suspension was incubated at 37° C. on a rotary shaking incubator at 150 rpm for 4 hours. Compounds 1, 7, 8, 9, 10, and 11 were added to the cell suspension, resulting in a concentration of 20 μM for each of the compounds. The cell suspensions containing the compounds were incubated at 37° C. on a rotary shaking incubator at 150 rpm for 4 hours. Each sample was diluted tenfold to a 10^−5 dilution. Ten 10 microliters of each dilution from each sample was dripped onto a TSA plate and allowed to streak down the plate. The agar plates were incubated at 37° C. for 18-24 hours. Colony counts were performed and CFU/mL values were calculated.
The MICs of PMB and compounds 7-11 were determined against Klebsiella pneumoniae (CRE, ATCC BAA-1705). […] After the incubation with PMB, each of the compounds was added at a concentration of 20 μM, and the samples were incubated for an additional 18 hours. A sample was taken and diluted ten-fold in media. Ten microliters of each dilution was then drip-streaked onto an agar plate and incubated overnight at 37° C. Colony counts were then performed and the concentrations of cells (CFU/mL) were calculated.

Clc1ccc(/N=N/c2c[nH]c3ccccc23)cc1 [Compound 9]
MIC (P. aeruginosa): > 100 µM
combination effect with Gentamycin ([1]; MRSA ATCC 33591): No Synergy
combination effect with Norfloxacin ([1]; MRSA ATCC 33591): No Synergy
combination effect with Oxacillin ([1]; MRSA ATCC 33591): No Synergy
combination effect with Tetracycline ([1]; MRSA ATCC 33591): No Synergy
combination effect with Vancomycin ([1]; MRSA ATCC 33591): Susceptible
combination effect with Norfloxacin ([1]; MRSA ATCC BAA-44): No Synergy
combination effect with Oxacillin ([1]; MRSA ATCC BAA-44): No Synergy
combination effect with Tetracycline ([1]; MRSA ATCC BAA-44): Susceptible
combination effect with Vancomycin ([1]; MRSA ATCC BAA-44): Susceptible
combination effect with Gentamycin ([1]; MRSA ATCC BAA-1707): Susceptible
combination effect with Norfloxacin ([1]; MRSA ATCC BAA-1707): Susceptible
combination effect with Oxacillin ([1]; MRSA ATCC BAA-1707): Susceptible
combination effect with Tetracycline ([1]; MRSA ATCC BAA-1707): No Synergy
combination effect with Vancomycin ([1]; MRSA ATCC BAA-1707): Susceptible
combination effect with Gentamycin ([1]; MRSA ATCC BAA-1717): Susceptible
combination effect with Norfloxacin ([1]; MRSA ATCC BAA-1717): Susceptible
combination effect with Oxacillin ([1]; MRSA ATCC BAA-1717): Synergy
combination effect with Tetracycline ([1]; MRSA ATCC BAA-1717): Susceptible
combination effect with Vancomycin ([1]; MRSA ATCC BAA-1717): Susceptible
combination effect with Gentamycin ([1]; MRSA ATCC BAA-1720): Susceptible
combination effect with Norfloxacin ([1]; MRSA ATCC BAA-1720): No Synergy
combination effect with Oxacillin ([1]; MRSA ATCC BAA-1720): Synergy
combination effect with Tetracycline ([1]; MRSA ATCC BAA-1720): Susceptible
combination effect with Vancomycin ([1]; MRSA ATCC BAA-1720): Susceptible
combination effect with Gentamycin ([1]; MRSA ATCC BAA-1747): Susceptible
combination effect with Norfloxacin ([1]; MRSA ATCC BAA-1747): Susceptible
combination effect with Oxacillin ([1]; MRSA ATCC BAA-1747): Susceptible
combination effect with Tetracycline ([1]; MRSA ATCC BAA-1747): Susceptible
combination effect with Vancomycin ([1]; MRSA ATCC BAA-1747): Susceptible
combination effect with Gentamycin ([1]; MRSA ATCC BAA-1754): Susceptible
combination effect with Norfloxacin ([1]; MRSA ATCC BAA-1754): Susceptible
combination effect with Oxacillin ([1]; MRSA ATCC BAA-1754): No Synergy
combination effect with Tetracycline ([1]; MRSA ATCC BAA-1754): Susceptible
combination effect with Vancomycin ([1]; MRSA ATCC BAA-1754): Susceptible
combination effect with Gentamycin ([1]; MRSA ATCC BAA-1761): Susceptible
combination effect with Norfloxacin ([1]; MRSA ATCC BAA-1761): No Synergy
combination effect with Oxacillin ([1]; MRSA ATCC BAA-1761): Susceptible
combination effect with Tetracycline ([1]; MRSA ATCC BAA-1761): Susceptible
combination effect with Vancomycin ([1]; MRSA ATCC BAA-1761): Susceptible
combination effect with Gentamycin ([1]; MRSA ATCC BAA-1763): Susceptible
combination effect with Norfloxacin ([1]; MRSA ATCC BAA-1763): No Synergy
combination effect with Oxacillin ([1]; MRSA ATCC BAA-1763): Synergy
combination effect with Tetracycline ([1]; MRSA ATCC BAA-1763): Susceptible
combination effect with Vancomycin ([1]; MRSA ATCC BAA-1763): Susceptible
combination effect with Gentamycin ([1]; MRSA ATCC BAA-1764): Susceptible
combination effect with Norfloxacin ([1]; MRSA ATCC BAA-1764): Susceptible
combination effect with Oxacillin ([1]; MRSA ATCC BAA-1764): Synergy
combination effect with Tetracycline ([1]; MRSA ATCC BAA-1764): Susceptible
combination effect with Vancomycin ([1]; MRSA ATCC BAA-1764): Susceptible
combination effect with Gentamycin ([1]; MRSA ATCC BAA-1766): Susceptible
combination effect with Norfloxacin ([1]; MRSA ATCC BAA-1766): Susceptible
combination effect with Oxacillin ([1]; MRSA ATCC BAA-1766): Synergy
combination effect with Tetracycline ([1]; MRSA ATCC BAA-1766): Susceptible
combination effect with Vancomycin ([1]; MRSA ATCC BAA-1766): Susceptible
MIC (VRE): > 200 µM
Log Reduction (A. baumannii): 8
CRE colony populations on simultaneous treatment with PME [2]: reduced the CRE colony populations to sterility
PMB + Comp [3]: None Detected
Comp @ 20 µM [3]: 6.4 × 10^8 CFU/mL

Clc1ccc(Oc2c(-c3ccc(Cl)cc3)[nH]c3ccc(Cl)cc23)cc1 [Compound 11]
MIC (P. aeruginosa): > 100 µM
combination effect with Gentamycin ([1]; MRSA ATCC 33591): No Synergy
combination effect with Norfloxacin ([1]; MRSA ATCC 33591): No Synergy
combination effect with Oxacillin ([1]; MRSA ATCC 33591): No Synergy
combination effect with Tetracycline ([1]; MRSA ATCC 33591): No Synergy
combination effect with Vancomycin ([1]; MRSA ATCC 33591): Susceptible
combination effect with Norfloxacin ([1]; MRSA ATCC BAA-44): No Synergy
combination effect with Oxacillin ([1]; MRSA ATCC BAA-44): Synergy
combination effect with Tetracycline ([1]; MRSA ATCC BAA-44): Susceptible
combination effect with Vancomycin ([1]; MRSA ATCC BAA-44): Susceptible
combination effect with Gentamycin ([1]; MRSA ATCC BAA-1707): Susceptible
combination effect with Norfloxacin ([1]; MRSA ATCC BAA-1707): Susceptible
combination effect with Oxacillin ([1]; MRSA ATCC BAA-1707): Susceptible
combination effect with Tetracycline ([1]; MRSA ATCC BAA-1707): Synergy
combination effect with Vancomycin ([1]; MRSA ATCC BAA-1707): Susceptible
combination effect with Gentamycin ([1]; MRSA ATCC BAA-1717): Susceptible
combination effect with Norfloxacin ([1]; MRSA ATCC BAA-1717): Susceptible
combination effect with Oxacillin ([1]; MRSA ATCC BAA-1717): Synergy
combination effect with Tetracycline ([1]; MRSA ATCC BAA-1717): Susceptible
combination effect with Vancomycin ([1]; MRSA ATCC BAA-1717): Susceptible
combination effect with Gentamycin ([1]; MRSA ATCC BAA-1720): Susceptible
combination effect with Norfloxacin ([1]; MRSA ATCC BAA-1720): No Synergy
combination effect with Oxacillin ([1]; MRSA ATCC BAA-1720): No Synergy
combination effect with Tetracycline ([1]; MRSA ATCC BAA-1720): Susceptible
combination effect with Vancomycin ([1]; MRSA ATCC BAA-1720): Susceptible
combination effect with Gentamycin ([1]; MRSA ATCC BAA-1747): Susceptible
combination effect with Norfloxacin ([1]; MRSA ATCC BAA-1747): Susceptible
combination effect with Oxacillin ([1]; MRSA ATCC BAA-1747): Susceptible
combination effect with Tetracycline ([1]; MRSA ATCC BAA-1747): Susceptible
combination effect with Vancomycin ([1]; MRSA ATCC BAA-1747): Susceptible
combination effect with Gentamycin ([1]; MRSA ATCC BAA-1754): Susceptible
combination effect with Norfloxacin ([1]; MRSA ATCC BAA-1754): Susceptible
combination effect with Oxacillin ([1]; MRSA ATCC BAA-1754): No Synergy
combination effect with Tetracycline ([1]; MRSA ATCC BAA-1754): Susceptible
combination effect with Vancomycin ([1]; MRSA ATCC BAA-1754): Susceptible
combination effect with Gentamycin ([1]; MRSA ATCC BAA-1761): Susceptible
combination effect with Norfloxacin ([1]; MRSA ATCC BAA-1761): No Synergy
combination effect with Oxacillin ([1]; MRSA ATCC BAA-1761): Susceptible
combination effect with Tetracycline ([1]; MRSA ATCC BAA-1761): Susceptible
combination effect with Vancomycin ([1]; MRSA ATCC BAA-1761): Susceptible
combination effect with Gentamycin ([1]; MRSA ATCC BAA-1763): Susceptible
combination effect with Norfloxacin ([1]; MRSA ATCC BAA-1763): No Synergy
combination effect with Oxacillin ([1]; MRSA ATCC BAA-1763): No Synergy
combination effect with Tetracycline ([1]; MRSA ATCC BAA-1763): Susceptible
combination effect with Vancomycin ([1]; MRSA ATCC BAA-1763): Susceptible
combination effect with Gentamycin ([1]; MRSA ATCC BAA-1764): Susceptible
combination effect with Norfloxacin ([1]; MRSA ATCC BAA-1764): Susceptible
combination effect with Oxacillin ([1]; MRSA ATCC BAA-1764): No Synergy
combination effect with Tetracycline ([1]; MRSA ATCC BAA-1764): Susceptible
combination effect with Vancomycin ([1]; MRSA ATCC BAA-1764): Susceptible
combination effect with Gentamycin ([1]; MRSA ATCC BAA-1766): Susceptible
combination effect with Norfloxacin ([1]; MRSA ATCC BAA-1766): Susceptible
combination effect with Oxacillin ([1]; MRSA ATCC BAA-1766): No Synergy
combination effect with Tetracycline ([1]; MRSA ATCC BAA-1766): Susceptible
combination effect with Vancomycin ([1]; MRSA ATCC BAA-1766): Susceptible
MIC (VRE): 20 µM (≈ 7.77 µg/mL)
Log Reduction (A. baumannii): 8
CRE colony populations on simultaneous treatment with PME [2]: reduced the CRE colony populations to sterility
PMB + Comp [3]: None Detected
Comp @ 20 µM [3]: 7.8 × 10^8 CFU/mL
